The values below come from BindingDB's records for doi:10.1021/jm010244+ (Axys Pharmaceuticals, 2001).

For this assay, the target named is plasmin (Homo sapiens). Kind of assay: The compound was tested for inhibition of human plasmin.

Broadly, the Ki is the dissociation constant of the complex between target and ligand, obtained from inhibition or displacement. Low values mean higher affinity, high ones lower affinity.

The structures appear in SMILES notation.

Consider `Cc1cc2[nH]c(-c3cccc(-c4ccccc4)c3O)cc2cc1C(=N)N` [2-(2-Hydroxy-biphenyl-3-yl)-6-methyl-1H-indole-5-carboxamidine], for which the Ki was 210 nM.

In turn, `N=C(N)c1ccc2[nH]c(-c3cccc(-c4ccccc4)c3O)cc2c1Cl` [4-Chloro-2-(2-hydroxy-biphenyl-3-yl)-1H-indole-5-carboxamidine] gave a Ki of 3000 nM.
